Measurements reported in US20080045584A1, “Use of Docetaxel for Treating Hepatocellular Carcinoma” (priority 1999, published 2008).
Where two headings read alike, the source gives them in different places.

Experiments:
Hep 3B cells [1] = conditions: 0.01 μM, 72 hours
Procedure: (§1) The experiments detailed below involve human hepatoma cell lines Hep3B (ATCC designation HB 8064), HepG2 (ATCC designation HB 8065) and HA22T/VGH, and murine hepatoma cell line Hepa 1-6. These cells were cultured in DMEM (GIBCO, BRL) containing 10% fetal bovine serum (Hyclone), 0.01 mg/ml gentamycin and 0.1 mM non-essential amino acid. Cells were grown in a CO2 incubator at 37° C., with 5% CO2 and 95% filtered air.
(§2) In the experiments detailed below the above hepatoma cells were treated with different concentrations of paclitaxel (0.001-10 μM) and docetaxel (0.001-10 μM) for 24 hours and 72 hours. Paclitaxel was dissolved in dimethylsulfoxide (DMSO) and docetaxel was dissolved in ethanol as stock solutions. The final concentration of vehicle was less than 0.1%.
(§3) Cells were cultured in a 96 well cell culture cluster (COSTAR) at a density of 4×10^4 cells/ml. After drug treatment for 24 hours or 72 hours, medium was discarded and replaced with an equal volume (100 μl) of fresh medium containing MTT (0.456 mg/ml; 3-[4,5-Dimethylthiazol-2-yl]2,5-diphenyl-tetrazolium bromide) and incubated for 1.5 hours at 37° C. The fresh medium was then discarded, and 100 μl DMSO was then added. Cell viability was determined by colorimetric comparison by reading OD values from a microplate reader (SPECTRA MAX250) at an absorption wavelength of 570 nm.
(§4) Data are the mean i standard error of mean from duplicate samples of three independent experiments.

Hepa 1-6 cells [2] = conditions: Hepa 1-6, 1 μM
Procedure: as §1, §2, §3, §4

Hepa 1-6 cells [3] = assay: Flow cytometric analysis of DNA content (cell cycle, sub-G0/G1); type: cell-based, murine
Procedure: (§5) Lysing buffer (0.5% Triton X-100, 0.2 μg/ml Na2EDTA.2H2O, and 1% bovine serum albumin in PBS) was added to the cell pellets which were then left on ice for 15 minutes. 100% methanol pre-cooled to −20° C. was then added to the mixture, which was then centrifuged at 300×g for 5 minutes. The supernatant was discarded and the cell pellet was washed with PBS. The washed pellet was stained with a DNA staining solution (50 μg/ml propidium iodide, and 5 kunitz/ml of RNase A) for 30 minutes at 4° C. in the dark. The DNA content of each cell was measured using a Becton Dickinson FACS Calibur flow cytometer as set out below.
(§6) Cells (10000) were analyzed on a Becton Dickinson FACS Calibur flow cytometer using an argon-ion laser (15 mWatt) with incident beam at 488 nm. For PI exclusion assay, red fluorescence was collected through a 585 nm filter and the cell debris signals were removed by FSC-SSC gating. Data were acquired and analyzed using FACS/CELL Quest software on a Power Macintosh 7600/120 computer. Apoptotic cells and cells at specific cycle phases were determined by ModFit LT software.
(§7) Table 1 gives figures for cell membrane permeability of the hepatoma cells, following treatment with paclitaxel and docetaxel. Table 2 details the percentage of apoptotic (sub-G0/G1) cells found after paclitaxel and docetaxel treatment.

[4] = tested on: hepatoma cell lines (Hep G2, Hep 3B, HA22T/VGH and Hepa 1-6); assay: Cell viability study: MTT assay, all lines (FIG. 1); type: cell-based
HA22T/VGH cells [5] = assay: Flow cytometric analysis of DNA content (cell cycle, sub-G0/G1); type: cell-based, human
Procedure: as §5, §6, §7

Hep G2 cells [6] = assay: as above; type: cell-based, human; conditions: for apoptotic percentages (sub-G0/G1 cells): 0.001 μM
Procedure: as §5, §6, §7

Hep 3B cells [7] = assay: as above; type: cell-based, human
Procedure: as §5, §6, §7

HA22T/VGH cells [8] = assay: Propidium iodide (PI) exclusion assay, flow cytometry; type: cell-based, human
Procedure: (§8) Cells were grown on 5-cm^2 flasks (CORNING) and treated with paclitaxel and docetaxel as set out above. Propidium iodide (10 μg/ml) was then added for 15 minutes incubation at 37° C. Then, medium was collected prior to harvest of the adherent cells. Both suspended and attached cells were collected and resuspended with 500 μl PBS for flow cytometry analysis as set out below. Debris signals were removed by FSC-SSC gating.
as §6
(§9) Data are mean±standard error of mean from duplicated sample of at least three independent experiments. Cells were treated with drugs for 24-72 hours, and membrane permeability was measured by flowcytometric analysis of propidium exclusion in viable hepatoma cells. Data are the percentage of cells with intact cell membrane as compared to control

Hep G2 cells [9] = assay: as above; type: cell-based, human
Procedure: as §8, §6, §9

Hep 3B cells [10] = assay: as above; type: cell-based, human
Procedure: as §8, §6, §9

Hep G2 cells [11] = assay: Cell viability study: MTT assay; type: cell-based, human; conditions: for viability: Hep G2, 1 μM

With `CC(=O)O[C@@]12CO[C@@H]1C[C@H](O)[C@@]1(C)C(=O)[C@H](O)C3=C(C)[C@@H](OC(=O)[C@H](O)[C@@H](NC(=O)OC(C)(C)C)c4ccccc4)C[C@@](O)([C@@H](OC(=O)c4ccccc4)[C@H]21)C3(C)C` [Docetaxel] the reduction of viability (Hep 3B cells [1]) was 37.06%, the maximum cytotoxicity (Hepa 1-6 cells [2]; 24 hours) was 65.34% and the maximum cytotoxicity (Hepa 1-6 cells [2]; 72 hours) was 30.71%. The “% of apoptotic (sub-G0/G1) cells” value (Hepa 1-6 cells [3]; Hepa 1-6, 24 hrs, 0.01 mM (text: μM)) was 52.81%, the “% of apoptotic (sub-G0/G1) cells” value (Hepa 1-6 cells [3]; Hepa 1-6, 24 hrs, 0.1 mM (text: μM)) was 50.76% and the “% of apoptotic (sub-G0/G1) cells” value (Hepa 1-6 cells [3]; Hepa 1-6, 24 hrs, 1 mM (text: μM)) was 53.8%. The “% of apoptotic (sub-G0/G1) cells” value (Hepa 1-6 cells [3]; Hepa 1-6, 72 hrs, 0.01 mM (text: μM)) was 31.25%, the “% of apoptotic (sub-G0/G1) cells” value (Hepa 1-6 cells [3]; Hepa 1-6, 72 hrs, 0.1 mM (text: μM)) was 53.95% and the “% of apoptotic (sub-G0/G1) cells” value (Hepa 1-6 cells [3]; Hepa 1-6, 72 hrs, 1 mM (text: μM)) was 62.49%. For the same compound, the “cell viability compared with paclitaxel (FIG. 1)” value ([4]; 0.01 and 0.1 μM, in nearly every case) was “decreased viability”, the “in vitro activity against HCC cells compared with paclitaxel” value ([4]; concentrations of up to 1 μM) was “significantly higher” and the “% of apoptotic (sub-G0/G1) cells” value (HA22T/VGH cells [5]; 24 hrs, 0.01 mM (text: μM)) was 41.75%. For the same compound, the “% of apoptotic (sub-G0/G1) cells” value (HA22T/VGH cells [5]; 24 hrs, 0.1 mM (text: μM)) was 18.61%, the “% of apoptotic (sub-G0/G1) cells” value (HA22T/VGH cells [5]; 24 hrs, 1 mM (text: μM)) was 22.94% and the “% of apoptotic (sub-G0/G1) cells” value (HA22T/VGH cells [5]; 72 hrs, 0.01 mM (text: μM)) was 56.64%. For the same compound, the “% of apoptotic (sub-G0/G1) cells” value (HA22T/VGH cells [5]; 72 hrs, 0.1 mM (table head; text: μM)) was 58.61%, the “% of apoptotic (sub-G0/G1) cells” value (HA22T/VGH cells [5]; 72 hrs, 1 mM (table head; text: μM)) was 60.98% and the “apoptotic percentages (sub-G0/G1 cells)” value (Hep G2 cells [6]; Hep G2, 24 hours) was 31.02%. For the same compound, the “% of apoptotic (sub-G0/G1) cells” value (Hep G2 cells [6]; Hep G2, 24 hrs, 0.01 mM (text: μM)) was 45.24%, the “% of apoptotic (sub-G0/G1) cells” value (Hep G2 cells [6]; Hep G2, 24 hrs, 0.1 mM (text: μM)) was 38.77% and the “% of apoptotic (sub-G0/G1) cells” value (Hep G2 cells [6]; Hep G2, 24 hrs, 1 mM (text: μM)) was 28.33%. For the same compound, the “apoptotic percentages (sub-G0/G1 cells)” value (Hep G2 cells [6]; Hep G2, 72 hours) was 21.92%, the “% of apoptotic (sub-G0/G1) cells” value (Hep G2 cells [6]; Hep G2, 72 hrs, 0.01 mM (text: μM)) was 42.45% and the “% of apoptotic (sub-G0/G1) cells” value (Hep G2 cells [6]; Hep G2, 72 hrs, 0.1 mM (text: μM)) was 42.44%. For the same compound, the “% of apoptotic (sub-G0/G1) cells” value (Hep G2 cells [6]; Hep G2, 72 hrs, 1 mM (text: μM)) was 56.66%, the “% of apoptotic (sub-G0/G1) cells” value (Hep 3B cells [7]; 24 hrs, 0.01 mM (text: μM)) was 59.14% and the “% of apoptotic (sub-G0/G1) cells” value (Hep 3B cells [7]; 24 hrs, 0.1 mM (table head; text: μM)) was 58.67%. The “% of apoptotic (sub-G0/G1) cells” value (Hep 3B cells [7]; 24 hrs, 0.1 mM (table head; text: μM), listed as docetaxel) was 58.69%, the “% of apoptotic (sub-G0/G1) cells” value (Hep 3B cells [7]; 24 hrs, 1 mM (text: μM)) was 65.74% and the “% of apoptotic (sub-G0/G1) cells” value (Hep 3B cells [7]; 72 hrs, 0.01 mM (text: μM)) was 64.12%. The “% of apoptotic (sub-G0/G1) cells” value (Hep 3B cells [7]; 72 hrs, 0.1 mM (text: μM)) was 81.66%, the “% of apoptotic (sub-G0/G1) cells” value (Hep 3B cells [7]; 72 hrs, 1 mM (text: μM)) was 79.33% and the “percentage of cells with intact cell membrane as compared to control” value (shortened to “percentage of cells”) (HA22T/VGH cells [8]; 24 hrs, 0.01 μM) was 98.66 ± 9.0%. The “percentage of cells” value (HA22T/VGH cells [8]; 24 hrs, 0.1 μM) was 38.71 ± 11.2%, the “percentage of cells” value (HA22T/VGH cells [8]; 24 hrs, 1 μM) was 40.79 ± 5.0% and the “percentage of cells” value (HA22T/VGH cells [8]; 72 hrs, 0.01 μM) was 55.44 ± 5.6%. The “percentage of cells” value (HA22T/VGH cells [8]; 72 hrs, 0.01 μM, listed as docetaxel) was 55.44%, the “percentage of cells” value (HA22T/VGH cells [8]; 72 hrs, 0.1 μM) was 21.24 ± 0.4% and the “percentage of cells” value (HA22T/VGH cells [8]; 72 hrs, 1 μM) was 22.03 ± 3.1%. The “percentage of cells” value (Hep G2 cells [9]; Hep G2, 24 hrs, 0.01 μM) was 94.86 ± 1.3%, the “percentage of cells” value (Hep G2 cells [9]; Hep G2, 24 hrs, 0.1 μM) was 85.49 ± 1.2% and the “percentage of cells” value (Hep G2 cells [9]; Hep G2, 24 hrs, 1 μM) was 81.24 ± 3.2%. The “percentage of cells” value (Hep G2 cells [9]; Hep G2, 72 hrs, 0.01 μM) was 61.06 ± 9.6%, the “percentage of cells” value (Hep G2 cells [9]; Hep G2, 72 hrs, 0.1 μM) was 40.03 ± 9.0% and the “percentage of cells” value (Hep G2 cells [9]; Hep G2, 72 hrs, 1 μM) was 27.42 ± 8.8%. The “percentage of cells” value (Hep 3B cells [10]; 24 hrs, 0.01 μM) was 93.80 ± 10.7%, the “percentage of cells” value (Hep 3B cells [10]; 24 hrs, 0.1 μM) was 57.41 ± 6.8% and the “percentage of cells” value (Hep 3B cells [10]; 24 hrs, 1 μM) was 57.39 ± 4.3%. For the same compound, the “percentage of cells” value (Hep 3B cells [10]; 72 hrs, 0.01 μM) was 36.81 ± 14.7%, the “percentage of cells” value (Hep 3B cells [10]; 72 hrs, 0.1 μM) was 36.25 ± 13.5% and the “percentage of cells” value (Hep 3B cells [10]; 72 hrs, 1 μM) was 20.25 ± 14.4%. The viability (Hep G2 cells [11]; 24 hours) was 65.03%, the viability (Hep G2 cells [11]; 72 hours) was 48.99% and the “viability at 10 μM compared with 1 μM” value (Hep G2 cells [11]; Hep G2, 10 μM, maximal reduction observed at 1 μM) was “no further decrease in viability”.
